# BindingDB's records for doi:10.1016/S0960-894X(97)00207-2 (1997)
# Molecular target: Beta-2 adrenergic receptor (Cavia porcellus) (UniProt Q8K4Z4)
# Test: Tested for beta-2-adrenergic blocking effect by measuring the ability to inhibit the relaxing effect of epinephrine on the isolated tracheal muscle of guinea pigs
# Chain of Beta-2 adrenergic receptor (Cavia porcellus) (Q8K4Z4 whole entry, looked up): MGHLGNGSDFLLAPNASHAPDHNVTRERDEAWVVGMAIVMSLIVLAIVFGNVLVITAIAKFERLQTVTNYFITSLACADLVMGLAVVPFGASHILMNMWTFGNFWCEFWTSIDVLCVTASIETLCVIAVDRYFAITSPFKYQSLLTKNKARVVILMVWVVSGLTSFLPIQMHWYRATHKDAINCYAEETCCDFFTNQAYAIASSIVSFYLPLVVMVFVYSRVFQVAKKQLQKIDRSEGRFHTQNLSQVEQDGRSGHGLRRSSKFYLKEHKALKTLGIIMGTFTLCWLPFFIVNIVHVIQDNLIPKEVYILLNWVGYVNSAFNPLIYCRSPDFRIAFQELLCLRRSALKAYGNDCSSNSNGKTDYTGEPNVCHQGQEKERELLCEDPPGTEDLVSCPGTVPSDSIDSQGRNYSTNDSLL
smiles,measurement,value
"COCCc1ccc(OC(F)(F)[C@@H](O)CNC(C)C)cc1 [(S)-1,1-Difluoro-3-isopropylamino-1-[4-(2-methoxy-ethyl)-phenoxy]-propan-2-ol]",IC50,2.15 µM
